# Source: PubChem BioAssay (NCI)
#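 Briefly, cells in 96-well plates were exposed to five compound concentrations for 48 h, and endpoints were estimated by linear interpolation. TGI denotes the concentration required for complete inhibition of growth.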
# Assays:
# Experiment in all cases: DTP human tumour cell line panel, 48 h
# 786-0 renal = test system: 786-0 renal
# A498 renal = test system: A498 renal
# A549 NSCLC = test system: A549 NSCLC
# ACHN renal = test system: ACHN renal
# BT-549 breast = test system: BT-549 breast
# CAKI-1 renal = test system: CAKI-1 renal
# CCRF-CEM leukemia = test system: CCRF-CEM leukemia
# COLO 205 colon = test system: COLO 205 colon
# DU-145 prostate = test system: DU-145 prostate
# EKVX NSCLC = test system: EKVX NSCLC
# HCC-2998 colon = test system: HCC-2998 colon
# HCT-116 colon = test system: HCT-116 colon
# HCT-15 colon = test system: HCT-15 colon
# HOP-62 NSCLC = test system: HOP-62 NSCLC
# HOP-92 NSCLC = test system: HOP-92 NSCLC
# HS 578T breast = test system: HS 578T breast
# HT29 colon = test system: HT29 colon
# IGROV1 ovarian = test system: IGROV1 ovarian
# KM12 colon = test system: KM12 colon
# M14 melanoma = test system: M14 melanoma
# MCF7 breast = test system: MCF7 breast
# MDA-MB-231 breast = test system: MDA-MB-231 breast
# MDA-MB-435 = test system: MDA-MB-435
# MDA-N = test system: MDA-N
# NCI-H226 lung = test system: NCI-H226 lung
# NCI-H23 lung = test system: NCI-H23 lung
# NCI-H460 lung = test system: NCI-H460 lung
# NCI-H522 lung = test system: NCI-H522 lung
# NCI/ADR-RES ovarian = test system: NCI/ADR-RES ovarian
# OVCAR-3 ovarian = test system: OVCAR-3 ovarian
# OVCAR-4 ovarian = test system: OVCAR-4 ovarian
# OVCAR-5 ovarian = test system: OVCAR-5 ovarian
# PC-3 prostate = test system: PC-3 prostate
# RXF 393 renal = test system: RXF 393 renal
# SF-268 CNS = test system: SF-268 CNS
# SF-295 CNS = test system: SF-295 CNS
# SF-539 CNS = test system: SF-539 CNS
# SK-MEL-2 melanoma = test system: SK-MEL-2 melanoma
# SK-MEL-28 melanoma = test system: SK-MEL-28 melanoma
# SK-MEL-5 melanoma = test system: SK-MEL-5 melanoma
# SK-OV-3 ovarian = test system: SK-OV-3 ovarian
# SN12C renal = test system: SN12C renal
# SNB-19 CNS = test system: SNB-19 CNS
# SNB-75 CNS = test system: SNB-75 CNS
# SW-620 colon = test system: SW-620 colon
# T-47D breast = test system: T-47D breast
# TK-10 renal = test system: TK-10 renal
# U251 CNS = test system: U251 CNS
# UACC-257 melanoma = test system: UACC-257 melanoma
# UACC-62 melanoma = test system: UACC-62 melanoma
# UO-31 renal = test system: UO-31 renal
structure (smiles),measurement,setting,value
O=C(O)c1cc(NCc2cc(O)ccc2O)ccc1O,TGI,786-0 renal,> 100 µM
same,TGI,A498 renal,> 100 µM
same,TGI,A549 NSCLC,> 100 µM
same,TGI,ACHN renal,> 100 µM
same,TGI,BT-549 breast,> 100 µM
same,TGI,CAKI-1 renal,> 100 µM
same,TGI,CCRF-CEM leukemia,> 100 µM
same,TGI,COLO 205 colon,> 100 µM
same,TGI,DU-145 prostate,> 100 µM
same,TGI,EKVX NSCLC,> 100 µM
same,TGI,HCC-2998 colon,> 100 µM
same,TGI,HCT-116 colon,> 100 µM
same,TGI,HCT-15 colon,> 100 µM
same,TGI,HOP-62 NSCLC,> 100 µM
same,TGI,HOP-92 NSCLC,> 100 µM
same,TGI,HS 578T breast,> 100 µM
same,TGI,HT29 colon,> 100 µM
same,TGI,IGROV1 ovarian,> 100 µM
same,TGI,KM12 colon,> 100 µM
same,TGI,M14 melanoma,> 100 µM
same,TGI,MCF7 breast,> 100 µM
same,TGI,MDA-MB-231 breast,> 100 µM
same,TGI,MDA-MB-435,> 100 µM
same,TGI,MDA-N,55.1 µM
same,TGI,NCI-H226 lung,> 100 µM
same,TGI,NCI-H23 lung,> 100 µM
same,TGI,NCI-H460 lung,> 100 µM
same,TGI,NCI-H522 lung,40.7 µM
same,TGI,NCI/ADR-RES ovarian,> 100 µM
same,TGI,OVCAR-3 ovarian,> 100 µM
same,TGI,OVCAR-4 ovarian,> 100 µM
same,TGI,OVCAR-5 ovarian,> 100 µM
same,TGI,PC-3 prostate,> 100 µM
same,TGI,RXF 393 renal,> 100 µM
same,TGI,SF-268 CNS,> 100 µM
same,TGI,SF-295 CNS,> 100 µM
same,TGI,SF-539 CNS,> 100 µM
same,TGI,SK-MEL-2 melanoma,> 100 µM
same,TGI,SK-MEL-28 melanoma,> 100 µM
same,TGI,SK-MEL-5 melanoma,> 100 µM
same,TGI,SK-OV-3 ovarian,> 100 µM
same,TGI,SN12C renal,> 100 µM
same,TGI,SNB-19 CNS,> 100 µM
same,TGI,SNB-75 CNS,> 100 µM
same,TGI,SW-620 colon,50.6 µM
same,TGI,T-47D breast,> 100 µM
same,TGI,TK-10 renal,> 100 µM
same,TGI,U251 CNS,> 100 µM
same,TGI,UACC-257 melanoma,> 100 µM
same,TGI,UACC-62 melanoma,> 100 µM
same,TGI,UO-31 renal,> 100 µM
